Patent US20250257059A1, “PROTEIN TYROSINE PHOSPHATASE INHIBITORS AND USES THEREOF” (Nerio Therapeutics, Inc., priority 2022, published 2025)

Experiments:
[1] = tested on: murine B16F10 melanoma cell line; test: B16F10 IFNγ-induced cellular growth inhibition assay (xCELLigence RTCA); assay type: cell-based; settings: Mus musculus, B16-F10, 48 h, B16F10 cells, 1 ng/mL mouse IFNγ, AUC of growth curve, read-out: B16 IFNγ Mediated Growth Inhibition Assay: AVG IC50
Method: Compound activity was determined using an interferon gamma (IFNγ)-induced cellular growth inhibition assay with the murine B16F10 melanoma cell line on an Agilent xCELLigence Real-Time Cell Analysis platform (RTCA). RTCA E-Plate View 96 plates (Agilent, 300601010) were pre-equilibrated with 50 μL of assay media (DMEM+10% FBS, Gibco 10566-024, Gibco 10082-147) at 37° C. in a humidified incubator before taking an initial measurement of impedance (sweep). B16F10 cells cultured in assay media were dissociated with TrypLE Express (Gibco 12605-010) for five minutes at 37° C., diluted in 3 volumes of assay buffer, centrifuged for 5 minutes at 500×g at room temperature before diluting cells to 7,700 cells/mL in assay media, plating 130 μL/well (1,000 cells/well) in the inner 60 wells of the assay plate, and adding 150 μL of assay media to the outer wells of the plate. Cells were incubated at room temperature for 20 min to allow cells to settle before placing them in the xCELLigence reader and incubating overnight at 37° C., sweeping wells every 15 minutes. After 24 hours, well readings were paused, plates were removed from the incubator and compounds were added using a Tecan D300e dispenser. All wells were normalized to a final concentration of 0.5% DMSO. Following a 30 min incubation at 37° C., recombinant mouse IFNγ (R&D Systems™ 485MI100) was diluted to 10 ng/mL in assay media and 20 μL was added to assay wells (1 ng/mL final concentration). Assay plates were placed in the xCELLigence reader and swept every 15 minutes.

[2] = target: full-length human PTPN2 (TC45) (1-387) (Homo sapiens (Human), UniProt P17706); test: Enzymatic assay used to determine potency of PTPN2 inhibitors (full length PTPN2 DiFMUP assay); assay type: biochemical; settings: 0.5 nM PTPN2, 100 μM DiFMUP, 30 min at room temperature
Chain of full-length human PTPN2 (TC45) (1-387) (P17706 other isoform, or with tags, fused parts or gaps): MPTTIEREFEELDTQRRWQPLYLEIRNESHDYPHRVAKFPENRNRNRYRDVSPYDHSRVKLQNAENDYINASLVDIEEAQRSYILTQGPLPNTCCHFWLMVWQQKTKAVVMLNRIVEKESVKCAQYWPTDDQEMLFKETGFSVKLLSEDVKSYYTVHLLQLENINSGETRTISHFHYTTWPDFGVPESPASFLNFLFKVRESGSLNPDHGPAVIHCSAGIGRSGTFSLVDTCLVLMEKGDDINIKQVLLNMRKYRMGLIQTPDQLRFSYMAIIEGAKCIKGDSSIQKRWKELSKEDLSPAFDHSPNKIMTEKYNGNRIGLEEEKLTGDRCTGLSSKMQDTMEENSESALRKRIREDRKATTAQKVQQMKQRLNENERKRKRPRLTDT
Method: Compound activity was determined in an in vitro enzymatic assay using untagged, full-length human PTPN2 (TC45) (1-387) protein. PTPN2 was produced in E. coli as a GST-TEV fusion and the GST was removed by TEV digestion, followed by additional purification to yield full-length PTPN2 (SEQ ID 1). PTPN2 enzyme was diluted in assay buffer (50 mM HEPES pH7.5, 0.2 mM EDTA, 1 mM DTT, 0.02% Brij-35, 0.02% BSA) to a final concentration of 0.5 nM and added to black 384-well non-binding plates (Greiner, 781900). Compounds were subsequently added using a Tecan D300e dispenser. Following a 10 min incubation at room temperature, DiFMUP substrate (ThermoFisher, D22065) was added to a final concentration of 100 μM. Plates were transferred to a SpectraMax plate reader (Molecular Devices) and fluorescence intensity was measured (ex 358, em 455) after a 30 min incubation at room temperature. […] A four-parameter curve fit was used to determine IC50 values from % inhibition data.

O=C1CN(c2c(O)cc(CCN3CCC4(CCCC4)C3)cc2F)S(=O)(=O)N1 [Example 112]
IC50 [1]: 165 nM

O=C1CN(c2c(O)cc(C[C@@H]3CCCNCC3)cc2F)S(=O)(=O)N1 (single isomer, unassigned) [Example 59]
IC50 [2]: 16 nM
IC50 [1]: > 47000 nM

O=C1CN(c2c(O)cc(CCC3CCNC3)cc2F)S(=O)(=O)N1 (centres unmarked) [Example 62]
IC50 [2]: 16 nM
IC50 [1]: > 100000 nM

O=C1CN(c2c(O)cc(CC3CCN(CC4CCOC4)C3)cc2F)S(=O)(=O)N1 (centres unmarked) [Example 15]
IC50 [2]: 24 nM
IC50 [1]: > 48000 nM

CC(C)CCN1CCC(CCc2cc(O)c(N3CC(=O)NS3(=O)=O)c(F)c2)C1 (centres unmarked) [Example 64]
IC50 [2]: 89 nM
IC50 [1]: > 100000 nM

O=C1CN(c2c(O)cc(CCN3CC[C@H](F)C3)cc2F)S(=O)(=O)N1 [Example 94]
IC50 [2]: 2 nM
IC50 [1]: 469 nM

O=C1CN(c2c(O)cc(C[C@@H]3CCNC3)cc2F)S(=O)(=O)N1 (single isomer, unassigned) [Example 26]
IC50 [2]: 8 nM

O=C1CN(c2c(O)cc(CC3CCCN(Cc4ccoc4)C3)cc2F)S(=O)(=O)N1 (centres unmarked) [Example 45]
IC50 [2]: 30 nM
IC50 [1]: 55400 nM

O=C1CN(c2c(O)cc(CCN3CCC4(CCC4)CC3)cc2F)S(=O)(=O)N1 [Example 105]
IC50 [2]: 3 nM
IC50 [1]: 219 nM

O=C1CN(c2c(O)cc(CCN3CC[C@@H](C(F)(F)F)C3)cc2F)S(=O)(=O)N1 [Example 122]
IC50 [1]: 2670 nM

O=C1CN(c2c(O)cc(CC3CCCN(Cc4cn[nH]c4)C3)cc2F)S(=O)(=O)N1 (centres unmarked) [Example 42]
IC50 [2]: 12 nM
IC50 [1]: > 100000 nM

O=C1CN(c2c(O)cc(CCN3CCC(F)(F)C3)cc2F)S(=O)(=O)N1 [Example 91]
IC50 [2]: 36 nM
IC50 [1]: > 24000 nM

O=C1CN(c2c(O)ccc(CC3CCCCN3CCC(F)(F)F)c2F)S(=O)(=O)N1 (centres unmarked) [Example 77]
IC50 [2]: 4 nM
IC50 [1]: > 100000 nM

O=C1CN(c2c(O)ccc(CC3CCCCN3CCc3ccccc3)c2F)S(=O)(=O)N1 (centres unmarked) [Example 78]
IC50 [2]: 13 nM
IC50 [1]: 11000 nM

O=C1CN(c2c(O)cc(CCN3CC4CCC3C4)cc2F)S(=O)(=O)N1 (centres unmarked) [Example 133]
IC50 [2]: 3 nM
IC50 [1]: 1040 nM

O=C1CN(c2c(O)cc(CCN3CCC(F)(F)CC3)cc2F)S(=O)(=O)N1 [Example 98]
IC50 [2]: 5 nM
IC50 [1]: 1050 nM

CC(C)CN1CCCC1CCc1cc(O)c(N2CC(=O)NS2(=O)=O)c(F)c1 (centres unmarked) [Example 68]
IC50 [2]: 46 nM
IC50 [1]: > 100000 nM

CC(C)(C)C1CCN(CCc2cc(O)c(N3CC(=O)NS3(=O)=O)c(F)c2)C1 (centres unmarked) [Example 111]
IC50 [1]: 130 nM

O=C1CN(c2c(O)cc(CC3CCCN(CC4CCNCC4)C3)cc2F)S(=O)(=O)N1 (centres unmarked) [Example 44]
IC50 [2]: 4 nM
IC50 [1]: 38000 nM

O=C1CN(c2c(O)cc(CC3CCCN(Cc4ncc[nH]4)C3)cc2F)S(=O)(=O)N1 (centres unmarked) [Example 52]
IC50 [2]: 44 nM
IC50 [1]: > 73000 nM

CCC1CCN(CCc2cc(O)c(N3CC(=O)NS3(=O)=O)c(F)c2)CC1 [Example 125]
IC50 [2]: 2 nM
IC50 [1]: 3090 nM

CCC1CCN(CCc2cc(O)c(N3CC(=O)NS3(=O)=O)c(F)c2)C1 (centres unmarked) [Example 87]
IC50 [2]: 3 nM
IC50 [1]: 299 nM

O=C1CN(c2c(O)ccc(CC3CCCCN3CCC3CCCC3)c2F)S(=O)(=O)N1 (centres unmarked) [Example 80]
IC50 [1]: 22700 nM

CC1(C)CCN(CCc2cc(O)c(N3CC(=O)NS3(=O)=O)c(F)c2)CC1 [Example 93]
IC50 [2]: 3 nM
IC50 [1]: 475 nM

CN1CCCCC(Cc2cc(O)c(N3CC(=O)NS3(=O)=O)c(F)c2)C1 (centres unmarked) [Example 56, 5-(2-fluoro-6-hydroxy-4-((1-methylazepan-3-yl)methyl)phenyl)-1,2,5-thiadiazolidin-3-one 1,1-dioxide]
IC50 [2]: 28 nM
IC50 [1]: > 45000 nM

O=C1CN(c2c(O)cc(CCN3CCCC3)cc2F)S(=O)(=O)N1 [Example 83, 5-(2-fluoro-6-hydroxy-4-(2-(pyrrolidin-1-yl)ethyl)phenyl)-1,2,5-thiadiazolidin-3-one 1,1-dioxide]
IC50 [2]: 3 nM
IC50 [1]: 674 nM

O=C1CN(c2c(O)cc(CCN3CCC4(CC3)CC4)cc2F)S(=O)(=O)N1 [Example 107]
IC50 [2]: 2 nM
IC50 [1]: 256 nM

O=C1CN(c2c(O)cc(CCN3CC[C@H](C(F)(F)F)C3)cc2F)S(=O)(=O)N1 (single isomer, unassigned) [Example 123]
IC50 [2]: 2 nM
IC50 [1]: 1840 nM

O=C1CN(c2c(O)cc(CCN3CCC4(CCOCC4)C3)cc2F)S(=O)(=O)N1 [Example 113]
IC50 [1]: 216 nM

O=C1CN(c2c(O)cc(CC3CCN(Cc4cocn4)C3)cc2F)S(=O)(=O)N1 (centres unmarked) [Example 16]
IC50 [2]: 16 nM
IC50 [1]: 35800 nM

CCCCCCN1CCC(Cc2cc(O)c(N3CC(=O)NS3(=O)=O)c(F)c2)C1 (centres unmarked) [Example 13]
IC50 [2]: 13 nM
IC50 [1]: 36200 nM

O=C1CN(c2c(O)cc(CC3CCCN(Cc4cocn4)C3)cc2F)S(=O)(=O)N1 (centres unmarked) [Example 47]
IC50 [2]: 98 nM

O=C1CN(c2c(O)cc(CC3CCN(CC4CCCC4)C3)cc2F)S(=O)(=O)N1 (centres unmarked) [Example 21]
IC50 [2]: 15 nM
IC50 [1]: 4590 nM

CC(C)CCN1CCC(Cc2cc(O)c(N3CC(=O)NS3(=O)=O)c(F)c2)C1 (centres unmarked) [Example 19]
IC50 [2]: 12 nM
IC50 [1]: 8430 nM

O=C1CN(c2c(O)cc(CN3CCCC3)cc2F)S(=O)(=O)N1 [Example 73]
IC50 [2]: 92 nM
IC50 [1]: 8620 nM

CCCCN1CCC(Cc2cc(O)c(N3CC(=O)NS3(=O)=O)c(F)c2)C1 (centres unmarked) [Example 8]
IC50 [2]: 88 nM
IC50 [1]: 18600 nM

CC[C@H]1CCN(CCc2cc(O)c(N3CC(=O)NS3(=O)=O)c(F)c2)C1 [Example 109]
IC50 [2]: 3 nM
IC50 [1]: 162 nM

O=C1CN(c2c(O)cc(CCN3CCC(CO)C3)cc2F)S(=O)(=O)N1 (centres unmarked) [Example 102]
IC50 [2]: 2 nM
IC50 [1]: 605 nM

CC(C)CC1CCN(CCc2cc(O)c(N3CC(=O)NS3(=O)=O)c(F)c2)C1 (centres unmarked) [Example 85]
IC50 [2]: 2 nM
IC50 [1]: 331 nM

CC(C)[C@H]1CCN(CCc2cc(O)c(N3CC(=O)NS3(=O)=O)c(F)c2)C1 [Example 135]
IC50 [1]: 290 nM

O=C1CN(c2c(O)cc(CCN3CCOCC3)cc2F)S(=O)(=O)N1 [Example 89]
IC50 [1]: 8910 nM

O=C1CN(c2c(O)cc(CCN3CCCC(F)C3)cc2F)S(=O)(=O)N1 (centres unmarked) [Example 97]
IC50 [1]: 1540 nM

CC1CN(CCc2cc(O)c(N3CC(=O)NS3(=O)=O)c(F)c2)C1 [Example 140]
IC50 [1]: 472 nM

CC(C)C[C@@H]1CCN(CCc2cc(O)c(N3CC(=O)NS3(=O)=O)c(F)c2)C1 [Example 120]
IC50 [1]: 2640 nM

O=C1CN(c2c(O)cc(CCN3CC(C(F)(F)F)C3)cc2F)S(=O)(=O)N1 [Example 137]
IC50 [1]: 2160 nM

CC(C)[C@@H]1CCN(CCc2cc(O)c(N3CC(=O)NS3(=O)=O)c(F)c2)C1 [Example 134]
IC50 [1]: 516 nM

O=C1CN(c2c(O)cc(CC3CCCNCC3)cc2F)S(=O)(=O)N1 (centres unmarked) [Example 57]
IC50 [2]: 15 nM

O=C1CN(c2c(O)cc(CCN3Cc4ccccc4C3)cc2F)S(=O)(=O)N1 [Example 128]
IC50 [1]: 610 nM

O=C1CN(c2c(O)ccc(CC3CCCCN3)c2F)S(=O)(=O)N1 (centres unmarked) [Example 75]
IC50 [2]: 20 nM

CC1(C)CN(CCc2cc(O)c(N3CC(=O)NS3(=O)=O)c(F)c2)C1 [Example 127]
IC50 [1]: 657 nM

COC1CCN(CCc2cc(O)c(N3CC(=O)NS3(=O)=O)c(F)c2)CC1 [Example 104]
IC50 [1]: 723 nM

COC[C@@H]1CCN(CCc2cc(O)c(N3CC(=O)NS3(=O)=O)c(F)c2)C1 [Example 117]
IC50 [1]: 331 nM

CC(C)CCCN1CCCCC1Cc1ccc(O)c(N2CC(=O)NS2(=O)=O)c1F (centres unmarked) [Example 79]
IC50 [1]: 3450 nM

O=C1CN(c2c(O)cc(CCN3CC(F)C3)cc2F)S(=O)(=O)N1 [Example 136]
IC50 [1]: 937 nM

O=C1CN(c2c(O)cc(CC3CCN(Cc4ccco4)C3)cc2F)S(=O)(=O)N1 (centres unmarked) [Example 7]
IC50 [1]: 2470 nM

CN1CCC(Cc2cc(O)c(N3CC(=O)NS3(=O)=O)c(F)c2)C1 (centres unmarked) [Example 1, 5-(2-fluoro-6-hydroxy-4-((1-methylpyrrolidin-3-yl)methyl)phenyl)-1,2,5-thiadiazolidin-3-one 1,1-dioxide]
IC50 [2]: 7 nM

O=C1CN(c2c(O)cc(C[C@H]3CCNC3)cc2F)S(=O)(=O)N1 (single isomer, unassigned) [Example 25]
IC50 [2]: 15 nM
